# Source: patent publication US20230167073A1 (Teijin Pharma Limited, priority 2020, published 2023)
# Target: T1, Human TRPC6 (Homo sapiens, UniProt Q9Y210)
# T1 construct: expressed in transfected cells
# T1 sequence (Q9Y210 1-931): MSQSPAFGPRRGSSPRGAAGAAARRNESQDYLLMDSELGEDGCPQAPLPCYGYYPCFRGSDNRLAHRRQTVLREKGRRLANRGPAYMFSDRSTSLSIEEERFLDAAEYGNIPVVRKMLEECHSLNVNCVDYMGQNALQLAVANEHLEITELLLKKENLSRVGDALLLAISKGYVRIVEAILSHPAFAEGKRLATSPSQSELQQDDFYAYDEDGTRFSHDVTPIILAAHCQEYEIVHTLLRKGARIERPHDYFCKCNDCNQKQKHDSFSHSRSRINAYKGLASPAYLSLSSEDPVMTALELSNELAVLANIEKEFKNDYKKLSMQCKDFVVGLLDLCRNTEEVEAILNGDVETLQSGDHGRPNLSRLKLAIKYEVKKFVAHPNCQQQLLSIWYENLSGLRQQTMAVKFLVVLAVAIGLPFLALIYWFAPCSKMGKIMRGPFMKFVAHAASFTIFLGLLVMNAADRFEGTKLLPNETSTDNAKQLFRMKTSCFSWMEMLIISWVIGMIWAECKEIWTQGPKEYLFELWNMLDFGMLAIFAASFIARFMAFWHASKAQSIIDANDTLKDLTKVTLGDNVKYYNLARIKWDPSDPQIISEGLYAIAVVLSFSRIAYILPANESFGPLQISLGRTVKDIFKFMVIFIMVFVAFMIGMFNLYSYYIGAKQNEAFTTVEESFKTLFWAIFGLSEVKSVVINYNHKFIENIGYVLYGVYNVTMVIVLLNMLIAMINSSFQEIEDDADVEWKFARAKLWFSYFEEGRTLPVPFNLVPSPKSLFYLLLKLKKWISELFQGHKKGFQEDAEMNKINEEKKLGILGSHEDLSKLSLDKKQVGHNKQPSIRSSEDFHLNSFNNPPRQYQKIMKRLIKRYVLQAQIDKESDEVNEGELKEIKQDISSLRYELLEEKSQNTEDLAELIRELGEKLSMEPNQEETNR
# Test: Evaluation of TRPC6 channel inhibitory activity (1), FLIPR Calcium 5 Assay Kit, OAG stimulation (Compound Nos. 1-1293)
# Assay type: cell-based
# Settings: Human TRPC6 stably-expressing cells, OAG 30 μM, FLIPR Calcium 5 Assay Kit; read-out: Inhibitory activity (pIC50 class) (converted)
# Summary of the method: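 Calcium influx read by FLIPR fluorescence in cells stably expressing human TRPC6, dye-loaded 30 min. Compounds preincubated 20 min, then OAG stimulation at 30 μM final. Inhibition fitted by four-parameter logistic regression to give pIC50, reported as +/++/+++ categories.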
row,SMILES,IC50 [nM]
1,"Cc1nc(Oc2cc(C#N)ccc2-c2ncc(CN)cn2)cc(-c2ccc(F)cn2)n1 [compound 474, 4-[5-(aminomethyl)pyrimidin-2-yl]-3-[6-(5-fluoropyridin-2-yl)-2-methylpyrimidin-4-yl]oxybenzonitrile]",> 1000
2,"Cn1nc(C2CC2)cc1Oc1cc(C#N)ccc1-c1cccc2nc(N)nn12 [compound 475, 4-(2-amino-[1,2,4]triazolo[1,5-a]pyridin-5-yl)-3-(5-cyclopropyl-2-methylpyrazol-3-yl)oxybenzonitrile]",> 1000
3,"Cc1cc(Oc2cc(C#N)ccc2-c2ncc(CC(C)(C)N)cn2)cc(N2CCOCC2)n1 [compound 476, 4-[5-(2-amino-2-methylpropyl)pyrimidin-2-yl]-3-(2-methyl-6-morpholin-4-ylpyridin-4-yl)oxybenzonitrile]",10 to 1000
4,"Cc1cc(Oc2cc(C#N)ccc2-c2ccc([C@H](O)CN)cn2)cc(OCC2CCCO2)n1 (stereo partly drawn) [compound 478, 4-[5-[(1S)-2-amino-1-hydroxyethyl]pyridin-2-yl]-3-[2-methyl-6-(oxolan-2-ylmethoxy)pyridin-4-yl]oxybenzonitrile]",10 to 1000
5,"Cc1cc(Oc2cc(C#N)ccc2-c2ccc([C@H](O)CN)cn2)cc(OCCOC(C)C)n1 [compound 479, 4-[5-[(1S)-2-amino-1-hydroxyethyl]pyridin-2-yl]-3-[2-methyl-6-(2-propan-2-yloxyethoxy)pyridin-4-yl]oxybenzonitrile]",> 1000
6,"Cn1nc(C2CC2)cc1Oc1cc(C#N)ccc1-c1ccc(C(N)C(=O)N2CCCCC2)cn1 (stereo not drawn) [compound 486, 4-[5-(1-amino-2-oxo-2-piperidin-1-ylethyl)pyridin-2-yl]-3-(5-cyclopropyl-2-methylpyrazol-3-yl)oxybenzonitrile]",> 1000
7,"CCN(CC)C(=O)C(N)c1ccc(-c2ccc(C#N)cc2Oc2cc(C3CC3)nn2C)nc1 (stereo not drawn) [compound 488, 2-amino-2-[6-[4-cyano-2-(5-cyclopropyl-2-methylpyrazol-3-yl)oxyphenyl]pyridin-3-yl]-N,N-diethylacetamide]",> 1000
8,"CN(C)C(=O)C(N)c1ccc(-c2ccc(C#N)cc2Oc2cc(C3CC3)nn2C)nc1 (stereo not drawn) [compound 489, 2-amino-2-[6-[4-cyano-2-(5-cyclopropyl-2-methylpyrazol-3-yl)oxyphenyl]pyridin-3-yl]-N,N-dimethylacetamide]",> 1000
9,"CC(C)NC(=O)C(N)c1ccc(-c2ccc(C#N)cc2Oc2cc(C3CC3)nn2C)nc1 (stereo not drawn) [compound 490, 2-amino-2-[6-[4-cyano-2-(5-cyclopropyl-2-methylpyrazol-3-yl)oxyphenyl]pyridin-3-yl]-N-propan-2-ylacetamide]",> 1000
10,"CNC(=O)C(N)c1ccc(-c2ccc(C#N)cc2Oc2cc(C3CC3)nn2C)nc1 (stereo not drawn) [compound 491, 2-amino-2-[6-[4-cyano-2-(5-cyclopropyl-2-methylpyrazol-3-yl)oxyphenyl]pyridin-3-yl]-N-methylacetamide]",10 to 1000
11,"COCCOc1cc(Oc2cc(C#N)ccc2-c2ncc(CCN)cn2)cc(C)n1 [compound 492, 4-[5-(2-aminoethyl)pyrimidin-2-yl]-3-[2-(2-methoxyethoxy)-6-methylpyridin-4-yl]oxybenzonitrile]",10 to 1000
12,"Cc1cc(Oc2cc(C#N)ccc2-c2ccc(CN)n3ccnc23)cc(N2CCOCC2)n1 [compound 494, 4-[5-(aminomethyl)imidazo[1,2-a]pyridin-8-yl]-3-(2-methyl-6-morpholin-4-ylpyridin-4-yl)oxybenzonitrile]",10 to 1000
13,"Cc1c(CN2CCN[C@@H](C)C2)cc(-c2ccc(C#N)cc2Oc2cc(C3CC3)nn2C)c2nccn12 [compound 497, 3-(5-cyclopropyl-2-methylpyrazol-3-yl)oxy-4-[5-methyl-6-[[(3S)-3-methylpiperazin-1-yl]methyl]imidazo[1,2-a]pyridin-8-yl]benzonitrile]",> 1000
14,"Cc1cc(Oc2cc(C#N)ccc2-c2ccc([C@H](O)CN)cn2)cc(N2CCCC2)n1 [compound 498, 4-[5-[(1S)-2-amino-1-hydroxyethyl]pyridin-2-yl]-3-(2-methyl-6-pyrrolidin-1-ylpyridin-4-yl)oxybenzonitrile]",< 10
15,"Cc1cc(Oc2cc(C#N)ccc2-c2ncc([C@H](O)CN)cn2)cc(N2CCCC2)n1 [compound 499, 4-[5-[(1S)-2-amino-1-hydroxyethyl]pyrimidin-2-yl]-3-(2-methyl-6-pyrrolidin-1-ylpyridin-4-yl)oxybenzonitrile]",< 10
16,"Cc1cc(Oc2cc(C#N)ccc2-c2ccc([C@H](O)CN)cn2)cc(N2CCCCC2)n1 [compound 500, 4-[5-[(1S)-2-amino-1-hydroxyethyl]pyridin-2-yl]-3-(2-methyl-6-piperidin-1-ylpyridin-4-yl)oxybenzonitrile]",< 10
17,"Cc1cc(Oc2cc(C#N)ccc2-c2ncc([C@H](O)CN)cn2)cc(N2CCCCC2)n1 [compound 501, 4-[5-[(1S)-2-amino-1-hydroxyethyl]pyrimidin-2-yl]-3-(2-methyl-6-piperidin-1-ylpyridin-4-yl)oxybenzonitrile]",< 10
18,"Cc1cc(Oc2cc(C#N)ccc2-c2ccc([C@H](O)CN)cn2)cc(N2CC(F)C2)n1 [compound 502, 4-[5-[(1S)-2-amino-1-hydroxyethyl]pyridin-2-yl]-3-[2-(3-fluoroazetidin-1-yl)-6-methylpyridin-4-yl]oxybenzonitrile]",< 10

# Now from value to molecule:
row,IC50 [nM],SMILES
1,10 to 1000,"Cc1cc(Oc2cc(C#N)ccc2-c2ncc(CCN)cn2)cc(OCC2CCO2)n1 (stereo not drawn) [compound 473, 4-[5-(2-aminoethyl)pyrimidin-2-yl]-3-[2-methyl-6-(oxetan-2-ylmethoxy)pyridin-4-yl]oxybenzonitrile]"
2,< 10,"Cn1nc(C2CC2)cc1Oc1cc(C#N)ccc1-c1ncc(CC(C)(C)N)cn1 [compound 477, 4-[5-(2-amino-2-methylpropyl)pyrimidin-2-yl]-3-(5-cyclopropyl-2-methylpyrazol-3-yl)oxybenzonitrile]"
3,> 1000,"Cn1nc(C2CC2)cc1Oc1cc(C#N)ccc1-c1cccc(CN)n1 [compound 480, 4-[6-(aminomethyl)pyridin-2-yl]-3-(5-cyclopropyl-2-methylpyrazol-3-yl)oxybenzonitrile]"
4,> 1000,"Cn1nc(C2CC2)cc1Oc1cc(C#N)ccc1-c1cccc(CCN)n1 [compound 481, 4-[6-(2-aminoethyl)pyridin-2-yl]-3-(5-cyclopropyl-2-methylpyrazol-3-yl)oxybenzonitrile]"
5,< 10,"Cn1nc(C2CC2)cc1Oc1cc(C#N)ccc1-c1cc(CCN)ccn1 [compound 482, 4-[4-(2-aminoethyl)pyridin-2-yl]-3-(5-cyclopropyl-2-methylpyrazol-3-yl)oxybenzonitrile]"
6,< 10,"Cn1nc(C2CCCO2)cc1Oc1cc(C#N)ccc1-c1ncc(CCN)cn1 (stereo not drawn) [compound 483, 4-[5-(2-aminoethyl)pyrimidin-2-yl]-3-[2-methyl-5-(oxolan-2-yl)pyrazol-3-yl]oxybenzonitrile]"
7,< 10,"Cn1nc(C2CCCO2)cc1Oc1cc(C#N)ccc1-c1ccc(CCN)cn1 (stereo not drawn) [compound 484, 4-[5-(2-aminoethyl)pyridin-2-yl]-3-[2-methyl-5-(oxolan-2-yl)pyrazol-3-yl]oxybenzonitrile]"
8,< 10,"Cn1nc(N2CCOCC2)cc1Oc1cc(C#N)ccc1-c1ccc(CCN)cn1 [compound 485, 4-[5-(2-aminoethyl)pyridin-2-yl]-3-(2-methyl-5-morpholin-4-ylpyrazol-3-yl)oxybenzonitrile]"
9,< 10,"Cn1nc(C2CC2)cc1Oc1cc(C#N)ccc1-c1ccc(CN)n2ccnc12 [compound 493, 4-[5-(aminomethyl)imidazo[1,2-a]pyridin-8-yl]-3-(5-cyclopropyl-2-methylpyrazol-3-yl)oxybenzonitrile]"
10,10 to 1000,"Cn1nc(C2CCOC2)cc1Oc1cc(C#N)ccc1-c1ncc(CCN)cn1 (stereo not drawn) [compound 495, 4-[5-(2-aminoethyl)pyrimidin-2-yl]-3-[2-methyl-5-(oxolan-3-yl)pyrazol-3-yl]oxybenzonitrile]"
11,< 10,"Cn1nc(C2CCOC2)cc1Oc1cc(C#N)ccc1-c1ccc(CCN)cn1 (stereo not drawn) [compound 496, 4-[5-(2-aminoethyl)pyridin-2-yl]-3-[2-methyl-5-(oxolan-3-yl)pyrazol-3-yl]oxybenzonitrile]"
12,< 10,"Cc1cc(Oc2cc(C#N)ccc2-c2ncc(CCN)cn2)cc(N2CC(F)C2)n1 [compound 503, 4-[5-(2-aminoethyl)pyrimidin-2-yl]-3-[2-(3-fluoroazetidin-1-yl)-6-methylpyridin-4-yl]oxybenzonitrile]"
